What is called IC50 is the concentration needed to halve the response being measured.

Here are results for 31 compounds from patent US12336981B2, “Compounds and compositions for the inhibition of NAMPT” (Valo Health, Inc., priority 2010, dated 2025).

Like-named read-outs stand apart in the source and are kept apart here.

For one test, the target named is T1, NAMPT (Homo sapiens, UniProt P43490).
T1 construct: His tag; host or cells: E. coli
The test is described as follows: Biochemical inhibition assay: NAMPT enzymatic reaction, NMN quantified by mass spectrometry. An outline of the steps:
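Inhibition of E. coli-expressed His-tagged human NAMPT, measured as NMN formation by mass spectrometry after a 30 min room-temperature reaction containing 1 μM NAM, 100 μM PRPP and 2.5 mM ATP.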

A further test deals with A2780 cells. In words: In-vitro cell proliferation assay (SRB), A2780 cells. Type of test: cell-based. The note with it: Homo sapiens, A2780, 72 h, A2780 cells, 72 hours, read-out: A2780 IC50. The procedure, abridged:
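Cells were plated overnight at 37° C., 5% CO2, then exposed to serially diluted compounds (0.1% DMSO final) for 72 hours. Viable cells were measured by sulforhodamine B staining after TCA fixation, read at 570 nm; media-only background was subtracted before % inhibition was calculated.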

The mark [1] stands for this setting: NAMPT enzymatic assay, read-out: Biochem IC50.
The mark [2] stands for this setting: NAMPT enzymatic reaction, read-out: Biochem IC50.

T1 sequence (P43490 whole entry): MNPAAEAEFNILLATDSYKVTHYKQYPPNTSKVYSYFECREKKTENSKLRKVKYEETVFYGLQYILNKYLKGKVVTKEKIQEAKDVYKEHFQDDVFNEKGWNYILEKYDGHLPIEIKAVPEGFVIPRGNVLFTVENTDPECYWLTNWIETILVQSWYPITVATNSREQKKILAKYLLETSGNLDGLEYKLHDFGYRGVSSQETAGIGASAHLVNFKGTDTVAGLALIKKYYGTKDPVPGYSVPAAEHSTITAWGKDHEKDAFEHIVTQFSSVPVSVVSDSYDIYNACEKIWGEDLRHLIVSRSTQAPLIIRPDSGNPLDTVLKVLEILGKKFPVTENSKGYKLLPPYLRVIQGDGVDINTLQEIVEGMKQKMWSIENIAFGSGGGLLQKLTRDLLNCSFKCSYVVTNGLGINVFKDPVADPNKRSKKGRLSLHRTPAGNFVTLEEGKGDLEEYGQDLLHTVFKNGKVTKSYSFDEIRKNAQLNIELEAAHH

As for `O=C(NCc1ccc(S(=O)(=O)c2ccc(C(F)(F)F)cn2)cc1)c1cc2ccncc2s1` [N-({4-[5-(trifluoromethyl)pyridine-2-sulfonyl]phenyl}methyl)thieno[2,3-c]pyridine-2-carboxamide], the IC50 on NAMPT (setting [1]) is 0.0235 µM; in the test with A2780 cells (SRB) it was 100 to 1000 nM.

For the compound `O=C(NCc1ccc(S(=O)(=O)c2cncc(C(F)(F)F)c2)cc1)c1cnc2[nH]ncc2c1` [N-({4-[5-(trifluoromethyl)pyridine-3-sulfonyl]phenyl}methyl)-1H-pyrazolo[3,4-b]pyridine-5-carboxamide], the half-inhibitory concentration (IC50) on NAMPT (setting [1]) turned out to be 0.011 µM; in the test on A2780 cells (SRB), 4 nM.

As for `O=C(NCc1ccc(S(=O)(=O)c2cncc(C(F)(F)F)c2)cc1)c1ccc2nccn2c1` [N-({4-[5-(trifluoromethyl)pyridine-3-sulfonyl]phenyl}methyl)imidazo[1,2-a]pyridine-6-carboxamide], the IC50 on NAMPT (setting [1]) is 0.009 µM; in the test with A2780 cells (SRB), 1.3 nM.

Turning to `O=C(NCc1ccc(S(=O)(=O)c2ccc(-n3cccn3)nc2)cc1)c1ccc2nccn2c1` [N-({4-[6-(1H-pyrazol-1-yl)pyridine-3-sulfonyl]phenyl}methyl)imidazo[1,2-a]pyridine-6-carboxamide], the IC50 worked out at 0.004 µM on NAMPT (setting [1]) and 1.9 nM in the test on A2780 cells (SRB).

With `O=C(NCc1ccc(S(=O)(=O)c2cccc(-c3ccc(F)c(F)c3)n2)cc1)c1cnc2[nH]ncc2c1` [N-({4-[6-(3,4-difluorophenyl)pyridine-2-sulfonyl]phenyl}methyl)-1H-pyrazolo[3,4-b]pyridine-5-carboxamide], the IC50 was determined as 0.0178 µM at NAMPT (setting [1]) and 41 nM in the test on A2780 cells (SRB).

On to `O=C(NCc1ccc(S(=O)(=O)c2cccc(-c3ccc(F)c(F)c3)n2)cc1)c1cc2cnccc2[nH]1` [N-({4-[6-(3,4-difluorophenyl)pyridine-2-sulfonyl]phenyl}methyl)-1H-pyrrolo[3,2-c]pyridine-2-carboxamide], for which the IC50 at NAMPT (setting [1]) was 0.016 µM; in the test on A2780 cells (SRB) it was 12.7 nM.

Take `O=C(NCc1ccc(S(=O)(=O)c2cccc(-c3ccc(F)c(F)c3)n2)cc1)c1cc2ccncc2o1` [N-({4-[6-(3,4-difluorophenyl)pyridine-2-sulfonyl]phenyl}methyl)furo[2,3-c]pyridine-2-carboxamide]: the IC50 was 0.005 µM at NAMPT (setting [1]) and 42.7 nM with A2780 cells (SRB).

For the compound `O=C(NCc1ccc(S(=O)(=O)c2cccc(-c3ccc(F)c(F)c3)n2)cc1)c1ccc2nccn2c1` [N-({4-[6-(3,4-difluorophenyl)pyridine-2-sulfonyl]phenyl}methyl)imidazo[1,2-a]pyridine-6-carboxamide], the IC50 is 0.0043 µM at NAMPT (setting [1]) and 5.7 nM in the test with A2780 cells (SRB).

Turning to `O=C(NCc1ccc(S(=O)(=O)c2cccc(-c3ccc(F)c(F)c3)n2)cc1)c1cc2ccncc2s1` [N-({4-[6-(3,4-difluorophenyl)pyridine-2-sulfonyl]phenyl}methyl)thieno[2,3-c]pyridine-2-carboxamide], the half-maximal inhibitory concentration (IC50) was found to be 0.0022 µM on NAMPT (setting [1]) and 13.2 nM with A2780 cells (SRB).

As for `CN1CCN(c2ccc(S(=O)(=O)c3ccc(CNC(=O)c4cc5cnccc5[nH]4)cc3)cn2)CC1` [N-({4-[6-(4-methylpiperazin-1-yl)pyridine-3-sulfonyl]phenyl}methyl)-1H-pyrrolo[3,2-c]pyridine-2-carboxamide], the IC50 at NAMPT (setting [1]) was 0.006 µM; in the test with A2780 cells (SRB), 0.6 nM.

`CN(C)c1ccc(S(=O)(=O)c2ccc(CNC(=O)c3cnc4[nH]ncc4c3)cc2)cn1` [N-({4-[6-(dimethylamino)pyridine-3-sulfonyl]phenyl}methyl)-1H-pyrazolo[3,4-b]pyridine-5-carboxamide]: the IC50 stood at 0.0305 µM at NAMPT (setting [1]) and 3.3 nM in the test with A2780 cells (SRB).

Consider `CN(C)c1ccc(S(=O)(=O)c2ccc(CNC(=O)c3cc4cnccc4[nH]3)cc2)cn1` [N-({4-[6-(dimethylamino)pyridine-3-sulfonyl]phenyl}methyl)-1H-pyrrolo[3,2-c]pyridine-2-carboxamide], for which the IC50 on NAMPT (setting [1]) was 0.0209 µM; with A2780 cells (SRB), 3.4 nM.

In the case of `CN(C)c1ccc(S(=O)(=O)c2ccc(CNC(=O)c3cc4ccncc4o3)cc2)cn1` [N-({4-[6-(dimethylamino)pyridine-3-sulfonyl]phenyl}methyl)furo[2,3-c]pyridine-2-carboxamide], the results for the IC50 at NAMPT (setting [1]) and in the test on A2780 cells (SRB) were 0.003 µM and 1.8 nM, respectively.

In the case of `CN(C)c1ccc(S(=O)(=O)c2ccc(CNC(=O)c3ccc4nccn4c3)cc2)cn1` [N-({4-[6-(dimethylamino)pyridine-3-sulfonyl]phenyl}methyl)imidazo[1,2-a]pyridine-6-carboxamide], the IC50 at NAMPT (setting [1]) is 0.0449 µM; in the test with A2780 cells (SRB), 2.7 nM.

As for `CN(C)c1ccc(S(=O)(=O)c2ccc(CNC(=O)c3cnc4nccn4c3)cc2)cn1` [N-({4-[6-(dimethylamino)pyridine-3-sulfonyl]phenyl}methyl)imidazo[1,2-a]pyrimidine-6-carboxamide], the IC50 on NAMPT (setting [1]) was determined as 0.0027 µM; with A2780 cells (SRB), 5.9 nM.

Consider `CN(C)c1ccc(S(=O)(=O)c2ccc(CNC(=O)c3cc4ccncc4s3)cc2)cn1` [N-({4-[6-(dimethylamino)pyridine-3-sulfonyl]phenyl}methyl)thieno[2,3-c]pyridine-2-carboxamide], for which the IC50 is 0.001 µM on NAMPT (setting [1]) and 0.6 nM with A2780 cells (SRB).

As to `O=C(NCc1ccc(S(=O)(=O)c2ccc(N3CCOCC3)nc2)cc1)c1cc2cnccc2[nH]1` [N-({4-[6-(morpholin-4-yl)pyridine-3-sulfonyl]phenyl}methyl)-1H-pyrrolo[3,2-c]pyridine-2-carboxamide], the concentration for half-maximal inhibition (IC50) at NAMPT (setting [1]) was 0.0096 µM; in the test on A2780 cells (SRB) it was 1.5 nM.

In the case of `O=C(NCc1ccc(S(=O)(=O)c2ccc(N3CCOCC3)nc2)cc1)c1cc2ccncc2o1` [N-({4-[6-(morpholin-4-yl)pyridine-3-sulfonyl]phenyl}methyl)furo[2,3-c]pyridine-2-carboxamide], the half-inhibitory concentration (IC50) was found to be 0.002 µM at NAMPT (setting [1]) and 0.9 nM in the test with A2780 cells (SRB).

Turning to `O=C(NCc1ccc(S(=O)(=O)c2ccc(N3CCOCC3)nc2)cc1)c1ccc2nccn2c1` [N-({4-[6-(morpholin-4-yl)pyridine-3-sulfonyl]phenyl}methyl)imidazo[1,2-a]pyridine-6-carboxamide], the concentration for half-maximal inhibition (IC50) came out at 0.009 µM on NAMPT (setting [1]) and 1.5 nM in the test with A2780 cells (SRB).

On to `O=C(NCc1ccc(S(=O)(=O)c2ccc(N3CCOCC3)nc2)cc1)c1cnc2nccn2c1` [N-({4-[6-(morpholin-4-yl)pyridine-3-sulfonyl]phenyl}methyl)imidazo[1,2-a]pyrimidine-6-carboxamide], for which the IC50 at NAMPT (setting [1]) worked out at 0.0011 µM; with A2780 cells (SRB), 3.3 nM.

Turning to `O=C(NCc1ccc(S(=O)(=O)c2ccc(N3CCOCC3)nc2)cc1)c1cc2ccncc2s1` [N-({4-[6-(morpholin-4-yl)pyridine-3-sulfonyl]phenyl}methyl)thieno[2,3-c]pyridine-2-carboxamide], the half-maximal inhibitory concentration (IC50) at NAMPT (Biochem IC50 uM) was found to be 0.0041 µM; in the test with A2780 cells (SRB), 0.7 nM.

As to `O=C(NCc1ccc(S(=O)(=O)c2cccc(C(F)(F)F)n2)cc1)c1cnc2[nH]ncc2c1` [N-({4-[6-(trifluoromethyl)pyridine-2-sulfonyl]phenyl}methyl)-1H-pyrazolo[3,4-b]pyridine-5-carboxamide], the IC50 at NAMPT (setting [1]) was found to be 0.0242 µM; in the test on A2780 cells (SRB), 11.1 nM.

Take `O=C(NCc1ccc(S(=O)(=O)c2cccc(C(F)(F)F)n2)cc1)c1cc2ccncc2o1` [N-({4-[6-(trifluoromethyl)pyridine-2-sulfonyl]phenyl}methyl)furo[2,3-c]pyridine-2-carboxamide]: the IC50 on NAMPT (setting [1]) stood at 0.005 µM; with A2780 cells (SRB), 3.1 nM.

Regarding `O=C(NCc1ccc(S(=O)(=O)c2cccc(C(F)(F)F)n2)cc1)c1ccc2nccn2c1` [N-({4-[6-(trifluoromethyl)pyridine-2-sulfonyl]phenyl}methyl)imidazo[1,2-a]pyridine-6-carboxamide], the IC50 on NAMPT (setting [1]) was found to be 0.0087 µM; with A2780 cells (SRB), 1.5 nM.

With `O=C(NCc1ccc(S(=O)(=O)c2cccc(C(F)(F)F)n2)cc1)c1cnc2nccn2c1` [N-({4-[6-(trifluoromethyl)pyridine-2-sulfonyl]phenyl}methyl)imidazo[1,2-a]pyrimidine-6-carboxamide], the IC50 on NAMPT (setting [1]) is 0.0114 µM; in the test on A2780 cells (SRB), 20.4 nM.

With `O=C(NCc1ccc(S(=O)(=O)c2cccc(C(F)(F)F)n2)cc1)c1cc2ccncc2s1` [N-({4-[6-(trifluoromethyl)pyridine-2-sulfonyl]phenyl}methyl)thieno[2,3-c]pyridine-2-carboxamide], the results for the IC50 on NAMPT (setting [1]) and in the test with A2780 cells (SRB) were 0.0021 µM and 2.2 nM, respectively.

On to `O=C(NCc1ccc(S(=O)(=O)c2ccc(C(F)(F)F)nc2)cc1)c1cc2ccncc2s1` [N-({4-[6-(trifluoromethyl)pyridine-3-sulfonyl]phenyl}methyl)thieno[2,3-c]pyridine-2-carboxamide], for which the IC50 on NAMPT (setting [1]) worked out at 0.0076 µM; with A2780 cells (SRB) it was 6.7 nM.

Turning to `O=C(NCc1ccc(S(=O)(=O)Nc2cccc3c(=O)occc23)cc1)c1cc2cnccc2[nH]1` [N-({4-[(1-oxo-1H-isochromen-5-yl)sulfamoyl]phenyl}methyl)-1H-pyrrolo[3,2-c]pyridine-2-carboxamide], the IC50 was 0.008 µM at NAMPT (setting [2]) and 2270 nM in the test on A2780 cells (SRB assay).

Consider `O=C(NCc1ccc(S(=O)(=O)Nc2ccc3cn[nH]c3c2)cc1)c1cc2cnccc2[nH]1` [N-({4-[(1H-indazol-6-yl)sulfamoyl]phenyl}methyl)-1H-pyrrolo[3,2-c]pyridine-2-carboxamide], for which the IC50 on NAMPT (setting [2]) was 0.135 µM; in the test with A2780 cells (SRB assay), 5440 nM.

Take `COc1ccc(OC)c(S(=O)(=O)c2ccc(CNC(=O)c3cnc4[nH]ncc4c3)cc2)c1OC` [N-({4-[(2,3,6-trimethoxybenzene)sulfonyl]phenyl}methyl)-1H-pyrazolo[3,4-b]pyridine-5-carboxamide]: the IC50 at NAMPT (setting [2]) is 0.0797 µM; in the test on A2780 cells (SRB), 66.3 nM.

For `COc1ccc(OC)c(S(=O)(=O)c2ccc(CNC(=O)c3cc4ccncc4s3)cc2)c1OC` [N-({4-[(2,3,6-trimethoxybenzene)sulfonyl]phenyl}methyl)thieno[2,3-c]pyridine-2-carboxamide], the IC50 on NAMPT (setting [1]) came to 0.012 µM; with A2780 cells (SRB), 5.5 nM.
